Data on two compounds can be found in US20020136817A1 (priority 1999, published 2002).

Structures can show the parent of a compound that is named as a salt.

The test system of one series is calcium kidney stones. The experiment in a line: Urinary risk of forming calcium kidney stones in individuals with oxalocalcium kidney stones, before and 15 days after treatment start. It is filed as in vivo, human. The conditions noted are these: for drop of the risk of forming calcium stones: 15 days after treatment start, citrate 6.48 g/day (Group II, potassium citrate tablets), phytate 120 mg/day (Group III, dietetic supplement). On the procedure:
These individuals have been divided into three groups: 19 individuals with kidney stones (Group I), 38 individuals with kidney stones (Group II) and 17 individuals with kidney stones (Group III). The urinary risk to form calcium kidney stones was evaluated for each individual before being subjected to any pharmacological treatment. […] 15 days after treatment starting, the urinary risk of forming calcium kidney stones was evaluated again for each individual.

The conditions of series [1]: cited from earlier work.

In the case of `O=C(O)CC(O)(CC(=O)O)C(=O)O` [citrate, potassium citrate, reference compound], the “drop of the risk of forming calcium stones” value with calcium kidney stones turned out to be 52%.

Turning to `O=P(O)(O)O[C@H]1[C@H](OP(=O)(O)O)[C@@H](OP(=O)(O)O)[C@H](OP(=O)(O)O)[C@@H](OP(=O)(O)O)[C@H]1OP(=O)(O)O` [phytate, inositol hexaphosphate], the “drop of the risk of forming calcium stones” value with calcium kidney stones is given as 50%. Further, in the series with calcium kidney stones (treatment of calcium kidney stones, compared with citrate), the “effect on urine pH” value is on record as “does not cause increases of the urine pH”. Also, in series [1] (after 10 days without a phytate intake), the “levels of phytates in urine and blood without intake” value is “drop to practically undetectable values”. In series [1] (diet supplemented with products rich in phytates), the “maximum urinary excretions as share of the total intake” value is reported as 1-5%. For the same compound, the “intake above which the amount excreted in urine does not increase” value in series [1] (dose-dependent urinary excretion) is recorded as 20.9 mg/kg of body weight.
